Data on one molecule can be found in patent publication US20220153875A1, “ANTIGEN-BINDING MOLECULE CONTAINING ANTIGEN-BINDING DOMAIN OF WHICH BINDING ACTIVITY TO ANTIGEN IS CHANGED DEPENDING ON MTA, AND LIBRARY FOR OBTAINING SAID ANTIGEN-BINDING DOMAIN” (Chugai Seiyaku Kabushiki Kaisha, priority 2019, published 2022).

The subject of series [1] is SK-MES-1 cells. Kind of series: Uptake of extracellular MTA by MTAP-non-deficient cells SK-MES-1 (MTA in culture solution, LC-MS). The format is in vitro ADME. The conditions noted are these: SK-MES-1, MTA added at 100 nM, 0, 4, 24, 48, 72 hours. As to the method: (§1) Since the MTA concentration in the culture solution of MTAP-deficient cells increases over time, it is inferred that there is an intracellular to extracellular MTA transfer pathway. However, in MTAP-non-deficient cells. MTA concentration in the culture solution was very low (FIG. 2), despite the expected presence of ˜1 uM MTA within the cells (FIG. 1). […] Thereafter, an MTA solution was added to the culture solution so as to make the MTA concentration 100 nM, and the cells were cultured for a predetermined time (MTA: Sigma, Catalog No. D5011-100MG).

Series [2] deals with HT-1376 cells. Briefly: Uptake of extracellular MTA by MTAP-non-deficient cells HT-1376 (MTA in culture solution, LC-MS). The format is in vitro ADME. The conditions noted are these: HT-1376, MTA added at 100 nM, 0, 4, 24, 48, 72 hours. As for the experimental part: as §1

`CSC[C@H]1O[C@@H](n2cnc3c(N)ncnc32)[C@H](O)[C@@H]1O` (stereo in doubt) [MTA, methylthioadenosine]: the “MTA concentration in the culture solution” value in series [1] and in series [2] was “decreased over time” in each case.
